In publication PMC6539231, “4,5-Diaryl 3(2H)Furanones: Anti-Inflammatory Activity and Influence on Cancer Growth” (Molecules, 2019):
Entries after “also recorded” stand apart in the source; their conditions may differ. Where two headings read alike, the source gives them in different places.

Assays:
MCF-7 cells [1] = experiment: Combination (synergy) growth assay in MCF-7 cells, Combination Index; format: cell-based, human; details: MCF-7, 48 h; for Combination Effect with 5-fluorouracil / CI, combination with 5-fluorouracil: + 0.3 μM 5-fu; for % Cell Growth, combination with 5-fluorouracil: + 0.3 μM 5-fu (21.3 μM 1h, 2.9 μM 1g, 3.8 μM x-1, 29 μM cel); for CI, combination with 5-fluorouracil / CI, combination with gefitinib: CI <1 synergy, >1 antagonism; for Combination Effect with gefitinib / CI, combination with gefitinib: + 70 μM gef; for % Cell Growth, combination with gefitinib: + 70 μM gef (27.5 μM 1h, 10 μM 1g, 10 μM x-1, 29 μM cel)
Description: In addition, exposure of the MCF-7 cells to each of the compounds in combination with each one of the two anti-neoplastic drugs was performed in order to study the synergistic effect of the compounds. The results are shown in Table 9 and Figure 5 and Figure 6.

ovine COX-1 = molecular target: T1, ovine COX-1 (Ovis aries, UniProt P05979); experiment: In vitro COX-1 inhibition (Cayman COX Inhibitor Screening Assay kit); format: biochemical; details: for % Inhibition (COX-1): Compound concentration 50 μΜ, arachidonic acid 0.1 μM
T1 construct: purchased Cayman Chemical Co., Ann Arbor, MI, USA
T1 sequence (P05979 25-600): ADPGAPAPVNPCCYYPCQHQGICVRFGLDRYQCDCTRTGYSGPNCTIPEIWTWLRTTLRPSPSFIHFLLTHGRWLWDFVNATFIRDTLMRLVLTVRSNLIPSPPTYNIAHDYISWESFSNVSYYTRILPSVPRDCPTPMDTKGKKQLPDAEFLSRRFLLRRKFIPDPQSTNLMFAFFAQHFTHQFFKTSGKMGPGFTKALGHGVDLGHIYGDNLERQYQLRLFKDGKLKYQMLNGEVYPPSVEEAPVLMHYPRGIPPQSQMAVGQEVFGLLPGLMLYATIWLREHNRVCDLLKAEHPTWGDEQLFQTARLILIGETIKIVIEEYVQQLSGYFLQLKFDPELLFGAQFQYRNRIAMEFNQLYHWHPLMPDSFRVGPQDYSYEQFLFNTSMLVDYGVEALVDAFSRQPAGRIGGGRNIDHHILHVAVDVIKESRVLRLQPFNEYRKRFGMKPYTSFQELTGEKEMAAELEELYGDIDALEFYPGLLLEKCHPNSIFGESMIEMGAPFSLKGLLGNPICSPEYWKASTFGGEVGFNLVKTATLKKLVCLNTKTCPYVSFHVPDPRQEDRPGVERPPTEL
Description: (§1) The COX-1 and COX-2 activities of the compounds were measured using ovine COX-1 and human recombinant COX-2 enzymes included in the “COX Inhibitor Screening Assay” kit provided by Cayman (Cayman Chemical Co., Ann Arbor, MI, USA) as reported previously

MCF-7 cells [2] = experiment: Growth inhibition assay, MCF-7 cells; format: cell-based, human; details: Homo sapiens, MCF7, 48 h, 48 h exposure
Description: (§2) The cells were grown in the presence of each of the selected compounds as well as of the two well-known anti-neoplastic drugs gefitinib and 5-fluorouracil.
(§3) Each cell culture was treated appropriately, ensuring that DMSO concentration was kept below ≤ 0.2% (v/v) after every dilution. Cells were seeded in 24-well plates, at an initial density of 5 × 10^4 cells/mL. […] Cells were allowed to grow for additional 48 h before being harvested by trypsinization and subsequently counted (cell density; number of cells/mL) using a hemocytometer (Neubauer counting chamber) and optical microscopy. Cell growth was expressed as a percentage relative to that for the untreated control culture (only cells and medium, CTL).

[3] = test system: carrageenan mice paw oedema; experiment: Carrageenin-induced mouse paw edema; format: in vivo, mice (AKR); details: Mus musculus, ip, read-out: CPE, %
Description: From the data of Table 7 it is obvious that anti-inflammatory activity of alkylsulfones and sulfoxides of furan-3(2H)-ones, including annelated derivatives are very similar.
The anti-inflammatory activity of compounds was performed using the carrageenan mice paw oedema assay. Animal of both sex (AKR), with exception of pregnant females were housed under standard conditions, receiving only water during the experimental period. […] The detailed description of the whole experiment reported previously. All the biological experiments were carried out in full compliance with the European Convention for the Protection of Vertebrate Animals used for Experimental or Other Scientific Purposes (ETS NO 123, Strasbourg, 03/18/1986): Strasbourg (France). European Treaty Series, № 123, March 18, 1986. 11 P. The project identification code and date of approval is 350880/3468 of 15-12-2014, University of Thessaloniki.

human recombinant COX-2 = molecular target: T2, human recombinant COX-2 (Homo sapiens, UniProt P35354); experiment: In vitro COX-2 inhibition (Cayman COX Inhibitor Screening Assay kit); format: biochemical; details: for % Inhibition (COX-2): Compound concentration 50 μΜ, arachidonic acid 0.1 μM
T2 construct: purchased Cayman Chemical Co., Ann Arbor, MI, USA
T2 sequence (P35354 18-604): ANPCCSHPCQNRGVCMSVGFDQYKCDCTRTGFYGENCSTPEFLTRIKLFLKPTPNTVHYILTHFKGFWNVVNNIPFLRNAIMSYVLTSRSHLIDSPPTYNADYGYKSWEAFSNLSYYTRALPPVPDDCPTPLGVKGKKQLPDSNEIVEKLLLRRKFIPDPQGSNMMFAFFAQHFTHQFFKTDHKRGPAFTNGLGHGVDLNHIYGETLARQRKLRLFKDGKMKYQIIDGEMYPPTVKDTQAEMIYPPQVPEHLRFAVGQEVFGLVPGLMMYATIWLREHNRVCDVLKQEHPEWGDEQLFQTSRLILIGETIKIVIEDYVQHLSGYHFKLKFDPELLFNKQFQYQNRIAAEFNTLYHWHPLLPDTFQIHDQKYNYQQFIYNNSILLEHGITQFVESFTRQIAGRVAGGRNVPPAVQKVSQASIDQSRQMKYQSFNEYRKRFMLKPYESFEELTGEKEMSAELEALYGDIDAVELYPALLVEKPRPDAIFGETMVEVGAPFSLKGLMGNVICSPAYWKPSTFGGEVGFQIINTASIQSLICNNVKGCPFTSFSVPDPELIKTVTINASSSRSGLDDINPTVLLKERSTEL
Description: as §1

MCF-7 cells [4] = experiment: Combination (synergy) growth assay in MCF-7 cells, Combination Index; format: cell-based, human; details: MCF-7, 48 h; for Combination Effect with celecoxib / CI, combination with celecoxib: + 29 μM cel; for % Cell Growth, combination with celecoxib: + 29 μM cel (21.3 μM 1h, 2.9 μM 1g, 3.8 μM x-1); for CI, combination with celecoxib: CI <1 synergy, >1 antagonism
HSC-3 cells = experiment: Growth inhibition assay, HSC-3 cells; details: for HSC-3 % Cell Growth: Compound concentration: 10μΜ; for IC50: Homo sapiens, HSC-3, 48 h, read-out: HSC-3 IC50 Values
Description: as §2, §3

[5] = Dose 0.1 µmol/g, intraperitoneally, simultaneously with carrageenin

SMILES	Combination Effect with 5-fluorouracil (MCF-7 cells [1])	% Cell Growth, combination with 5-fluorouracil (MCF-7 cells [1]) [%]	CI, combination with 5-fluorouracil (MCF-7 cells [1])	Combination Effect with gefitinib (MCF-7 cells [1])	% Cell Growth, combination with gefitinib (MCF-7 cells [1]) [%]	CI, combination with gefitinib (MCF-7 cells [1])	% Inhibition (COX-1) (ovine COX-1) [%]	IC50 (MCF-7 cells [2]) [µM]	inhibition in vivo at 0.1 µmol/g [3, 5] [%]	% Inhibition (COX-2) (human recombinant COX-2) [%]	Combination Effect with celecoxib (MCF-7 cells [4])	% Cell Growth, combination with celecoxib (MCF-7 cells [4]) [%]	CI, combination with celecoxib (MCF-7 cells [4])	HSC-3 % Cell Growth (HSC-3 cells) [%]	IC50 (HSC-3 cells) [µM]	melting point [°C]	further results
C[S+]([O-])c1ccc(C2=C(c3ccc(F)cc3)OC(C)(C)C2=O)cc1 (stereo not shown) [1g, 5-(4′-Fluorophenyl) 2,2-dimethyl-4-[4-(methylsulfinyl)phenyl]-furan-3(2H)-one]	synergism	19.1	0.058 ± 0.010 <1	synergism	36.5	0.780 ± 0.200 < 1	73	10	49	0	synergism	36.6	0.750 ± 0.025 < 1	36 ± 4	7.5	–	IC50 (ovine COX-1; read-out: Experimental IC50 COX-1): 2.8 µM; IC50 (human recombinant COX-2; read-out: Experimental IC50 COX-2): > 50 µM; HSC-3 growth inhibition (HSC-3 cells; concentration of 10 μΜ): 64%
CC1(C)OC(c2ccc(F)cc2)=C(c2ccc(S(C)(=O)=O)cc2)C1=O [1h, 5-(4′-Fluorophenyl)-2,2-dimethyl-4-[4′-(methylsulfonyl)phenyl]-furan-3(2H)-one]	synergism	27.3	0.533 ± 0.015 <1	antagonistic effect; also recorded: antagonism	45.9	>1	32	24	48.8	0	antagonism	38.6	>1	100 ± 10	90	191 to 192	–
CC1(C)Oc2c(c3ccc(S(C)(=O)=O)cc3c3ccccc23)C1=O [x-1, 2′,2′-dimethyl-3-(methylsulfonyl)-phenanthro[9,10-b]furan-3′(2′H)-one]	antagonistic effect; also recorded: antagonism	21.0	>1	synergism	24.3	0.260 ± 0.033 < 1	–	10	–	–	antagonism	60.6	>1	91 ± 10	60	222 to 224	CI, combination with gefitinib (MCF-7 cells [1]; listed as X-1): 0.260; inhibition in vivo at 0.1 µmol/g [3]: 45%
